In US20130295578A1, “METHODS FOR SCREENING FOR DRUG RESISTANCE IN CANCER TREATMENT” (TRUSTEES OF DARTMOUTH COLLEGE, priority 2011, published 2013):

Tests used:
COLO-357 cells [1] = settings: for EGF/TGF-β1-induced growth stimulation: 1 nM EGF + 100 pM TGF-β1, inhibitor pre-incubated or added concomitantly
Experimental: An equal volume of cell suspension and ice-chilled 6% Matrigel™ (BD biosciences, San Jose, Calif.) in complete medium (RPMI 1640 supplemented with 5% FBS and 1× penicillin/streptomycin) were mixed and dispensed at: 5-15×10^3 cells in 1000 μl per well of 12-well plates or 3-10×10^3 cells in 200 μl per well of 48-well plates on top of a solidified 1% noble agar layer (Difco, Sparks, Md.). Ice-chilled 3% Matrigel™ in complete medium was used to replenish medium every 4 days and/or to administer compounds.
After 4 hours of staining with 2.5 mg/ml of 3-(4,5-Dimethylthiazol-2-yl)-2,5-diphenyltetrazolium bromide (MTT; Sigma) in PBS, plates were scanned and images were stored as high resolution (1200 dpi) grayscale TIFF files. Signal intensity and density was quantified using Image-Pro Plus (Media Cybernetics, Bethesda, Md.).

PK-2 cells [2] = assay: modified extracellular matrix-based 3D culture, MTT readout; format: cell-based, murine; settings: for EGF/TGF-β1-induced growth stimulation: 1 nM EGF + 100 pM TGF-β1, inhibitor pre-incubated or added concomitantly; for chemoresistance to treatment: PK-2 compared with COLO-357, at the tested concentrations
Experimental: (§1) Murine pancreatic tissue from euthanized animals was mechanically minced and digested with 2 mg/ml of Collagenase Type 4 (Worthington, Lakewood, N.J.) for 1 hour at 37° C. For ex vivo primary cell culture, 10,000 cells per well of 48-well plate were immediately plated in 3% Matrigel™ as described above, except for this modification: RPMI 1640 medium was supplemented with 20% FBS, 1× penicillin/streptomycin and 25 ng/mL amphotericin B (MP Biomedicals, LLC, Solon, Ohio). For secondary cell cultures from tumor lesions of mouse models, cancer (epithelial) cells were selected by carrying out several rounds of diluted plating in RPMI 1640 medium, with a gradual decrease concentration of FBS from 20% to 5%: PK-1 and RInk-1, as previously reported (Seeley et al. 2009. Cancer Res. 69:422-430), or after subcutaneous passage in nude mice (PK-2 and RInk-2). Experiments were conducted with epithelial cells within less than 20 passages.

PK-1 and PK-2 cells = assay: modified extracellular matrix-based 3D culture; format: cell-based, murine; settings: kinase inhibitor present
Experimental: as §1

[3] = test system: BT474 breast cancer cells; settings: 3D culture, trastuzumab resistance; cited from earlier work
PK; p16/p19Δ/Δ cells = assay: ex vivo primary cell 3D culture of PDAC mouse model tumor cells; format: cell-based; settings: p16/p19Δ/Δ tumor-derived cells
Experimental: (§2) To assess tissue response to different chemotherapeutic treatments, tumor tissues were digested with collagenase to obtain single cell suspensions for accurate cell counting and equal cell seeding in replica experimental wells.
as §1

PK; p53Δ/Δ cells = assay: as above; format: cell-based; settings: p53Δ/Δ tumor-derived cells
Experimental: as §2, §1

PDAC patients = settings: cited from earlier work
[4] = test system: PK-1, PK-2 and RInk-2 cells; assay: modified extracellular matrix-based 3D culture, growth factor stimulation; format: cell-based, murine
Experimental: (§3) To determine how pancreatic cancer cells would integrate potential interactions between EGF and TGF-β1 signals, cells were treated four days after seeding in 3% Matrigel™ with TGF-β1 at a final concentration of 100 pM and/or EGF at 1 nM. […] The growth of ASPC-1, BxPC3 and T3M4 was not affected by TGFB-β1 treatment.
as §1

[5] = test system: ASPC-1, BxPC3 and T3M4 cells; assay: as above; format: cell-based, human
Experimental: as §3

PK-2 cells [6] = assay: culture on tissue culture-treated plastic plates, morphology and immunostaining; format: cell-based, murine
Source text: (§4) To further investigate the effects of extracellular matrix components on integration of growth factor signals in both human and murine pancreatic cancer cells, cellular responses were compared on conventional tissue culture-treated plastic plates and in 3% Matrigel™. […] Thus, cells loosened their tightly packed cobble-stone like arrangement, became more motile and acquired an elongated fibroblast-like shape. […] This effect was not observed in T3M4 cells, whereas the distribution of the cytoskeleton protein tubulin (control marker) was uniform across all epithelial structures. Increased vimentin expression was not observed in these cellular structures.
(§5) Cells cultured in 3% Matrigel™ were collected 4 days after treatment on a 40 μm sieve mesh using chilled PBS to loosen Matrigel™ matrix, fixed in 10% formalin for 1 hour and coated with melted 1% noble agar. Agar plugs were fixed for up to 4 hours in formalin and paraffin-embedded in fully-automated Shandon Pathcentre instrument as described previously (Sempere et al. 2010. Clin Cancer Res. 16:4246-4255). For freshly fixed cell assays, cells were seeded at 2-5×10^3 per well on 48-well plates, treated after 24 hours and collected 48 hours after treatments by rinsing with chilled PBS and fixed in 10% formalin for 30 minutes. Four μm sections of cellular structures in paraffin-embedded or freshly fixed cells were immunostained using antibody conditions and sequential tyramide signal amplification reactions as previously described (Sempere et al. 2010. Clin Cancer Res. 16:4246-4255).

COLO-357 cells [7] = assay: as above; format: cell-based, human
Source text: as §4, §5

COLO-357 cells [8] = assay: anchorage-independent growth in soft agar culture; format: cell-based, human; settings: COLO-357, soft agar

Q: Which EGF/TGF-β1-induced growth stimulation (COLO-357 cells [1]; COLO-357, 3D culture) does the source give for `NC(=O)c1ccc(-c2nc(-c3ccc4c(c3)OCO4)c(-c3ccccn3)[nH]2)cc1` [SB431542] here?
A: significantly decreased

Q: What about the “EGF/TGF-β1-induced growth stimulation, late inhibitor addition” value (COLO-357 cells [1]; COLO-357, inhibitor added 4 days following incubation with EGF/TGF-β1) of the same compound?
A: halted further growth stimulation

Q: And the EGF/TGF-β1-induced growth stimulation (PK-2 cells [2]; PK-2, 3D culture)?
A: significantly decreased

Q: What about the “EGF/TGF-β1-induced growth stimulation, late inhibitor addition” value (PK-2 cells [2]; PK-2, inhibitor added 4 days following incubation with EGF/TGF-β1) of the same compound?
A: halted further growth stimulation

Q: What does the source list for `C[S+]([O-])c1ccc(-c2nc(-c3ccncc3)c(-c3ccc(F)cc3)[nH]2)cc1` (centres unmarked) [SB203580]?
A: stimulatory growth effects of EGF/TGF-β1 (PK-1 and PK-2 cells): mild effect; EGF/TGF-β1-induced growth stimulation (COLO-357 cells [1]; COLO-357, 3D culture): mild inhibitory effect

Q: For `CC(C)(C)n1nc(-c2ccc(Cl)cc2)c2c(N)ncnc21` [PP2], which “activation of PI3K/AKT pathway and chemoresistant effects of TGF-β” value [3] is on record?
A: prevented activation of PI3K/AKT pathway and disrupted chemoresistant effects of TGF-β

Q: With `N.N.[Cl][Pt][Cl]` [cisplatin, cis-diamminedichloroplatinum] as the compound, how does the “number and size of cellular structures in 3D culture” value (from here on “number and size”) (PK; p16/p19Δ/Δ cells) read?
A: reduced the number and size of cellular structures

Q: And the “number and size” value (PK; p53Δ/Δ cells)?
A: reduced the number and size of cellular structures

Q: And the chemoresistance to treatment (PK-2 cells [2])?
A: more chemoresistant

Q: What does the source list for `C#Cc1cccc(Nc2ncnc3cc(OCCOC)c(OCCOC)cc23)c1` [erlotinib]?
A: additional increase in survival (PDAC patients; addition to gemcitabine as first-line PDAC treatment): 12 days; EGF/TGF-β1-induced growth stimulation (COLO-357 cells [1]; COLO-357, 3D culture): significantly decreased; EGF/TGF-β1-induced growth stimulation (PK-2 cells [2]; PK-2, 3D culture): significantly decreased

Q: For `Nc1ccn([C@@H]2O[C@H](CO)[C@@H](O)C2(F)F)c(=O)n1` [gemcitabine], which prolongation of life (PDAC patients; PDAC) is on record?
A: about 8 weeks

Q: And the “number and size” value (PK; p16/p19Δ/Δ cells)?
A: reduced the number and size of cellular structures

Q: And the “number and size” value (PK; p53Δ/Δ cells)?
A: reduced the number and size of cellular structures

Q: And the cytotoxic effect (COLO-357 cells [1]; human, 4 days, 10 nM)?
A: killed most COLO-357 cells

Q: And the chemoresistance to treatment (PK-2 cells [2])?
A: more chemoresistant

Q: For `N#CC(=C(/N)Sc1ccccc1N)/C(C#N)=C(\N)Sc1ccccc1N` [U0126], which “stimulatory growth effects of EGF/TGF-β1” value (PK-1 and PK-2 cells) is on record?
A: moderate effect

Q: And the EGF/TGF-β1-induced growth stimulation (COLO-357 cells [1]; COLO-357, 3D culture)?
A: mild inhibitory effect

Q: And the “protective effects of EGF/TGF-β1 against gemcitabine and cisplatin” value (PK-2 cells [2]; PK-2, 3D culture, concomitant inhibitor treatment)?
A: markedly effective only in PK-2 cells

Q: Which morphology ([4]; 100 pM TGF-β1) does the source give for “TGF-β1: transforming growth factor-β isoform 1, used at 100 pM” here?
A: profound morphological changes

Q: What about the growth ([4]; growth factor treatment four days after seeding) of the same compound?
A: dramatically enhanced the growth

Q: What about the growth ([5]; 100 pM TGF-β1) of the same compound?
A: not affected

Q: What about the “proliferative actions of EGF” value ([5]; TGF-β1 added to EGF) of the same compound?
A: did not affect

Q: What about the “E-cadherin and vimentin immunostaining” value (PK-2 cells [6]; PK-2, on plastic, after TGF-β1 treatment) of the same compound?
A: loss of membranous E-cadherin (epithelial marker) and upregulation of intermediate filament vimentin (mesenchymal marker)

Q: And the “TGF-β1 concentration giving limited morphological changes” value (PK-2 cells [6]; PK-2, plastic culture)?
A: 20 pM

Q: And the “TGF-β1 concentration giving overt morphological changes” value (PK-2 cells [6]; PK-2, plastic culture)?
A: 200 pM

Q: What about the “E-cadherin and vimentin immunostaining” value (COLO-357 cells [7]; COLO-357, on plastic, after TGF-β1 treatment) of the same compound?
A: loss of membranous E-cadherin (epithelial marker) and upregulation of intermediate filament vimentin (mesenchymal marker)

Q: What about the “TGF-β1 concentration giving limited morphological changes” value (COLO-357 cells [7]; COLO-357, plastic culture) of the same compound?
A: 20 pM

Q: What about the “TGF-β1 concentration giving overt morphological changes” value (COLO-357 cells [7]; COLO-357, plastic culture) of the same compound?
A: 200 pM

Q: And the “size and number of colonies” value (COLO-357 cells [8])?
A: decreased the size and number of colonies

Q: And the “growth promoting effects of EGF” value (COLO-357 cells [8]; TGF-β1 added to EGF)?
A: antagonized

Q: And the E-cadherin immunostaining (COLO-357 cells [1]; COLO-357, 3D culture)?
A: reduced membranous localization of E-cadherin

Q: What about the “lowest concentration at which morphological changes were observed” value (COLO-357 cells [1]; COLO-357, 3D culture) of the same compound?
A: 1 pM

Q: And the morphology (COLO-357 cells [1]; COLO-357, 3D culture, 100 pM TGF-β1)?
A: profound morphological changes

Q: And the “growth stimulatory effects of EGF” value (COLO-357 cells [1]; COLO-357, 3D culture, TGF-β1 added to EGF)?
A: greatly enhanced

Q: What about the growth (COLO-357 cells [1]; COLO-357, 3D culture, growth factor treatment) of the same compound?
A: mild growth stimulatory effects

Q: And the “size of cellular structures under cisplatin or gemcitabine challenge” value (COLO-357 cells [1]; COLO-357, growth factor-treated, after 4 and 8 days of incubation)?
A: > 5 cells

Q: What about the E-cadherin immunostaining (PK-2 cells [2]; PK-2, 3D culture) of the same compound?
A: reduced membranous localization of E-cadherin

Q: What about the “lowest concentration at which morphological changes were observed” value (PK-2 cells [2]; PK-2, 3D culture) of the same compound?
A: 1 pM
